{"source": "paper PMC9241976", "about": "(Chemical Science, 2022)", "tested_on": "MCF-7 cells", "test": "Sulforhodamine B assay, cytostatic and cytotoxic activity", "type": "cell-based, human", "settings": "LC50 versus GI50 of the same compound"}
{"substance": "polytheonamide B [Compound 5]", "values": [{"measurement": "difference between GI50 and LC50", "value": 19, "unit": "fold"}]}
